Assay results reported in the NIST ThermoML archive (doi:10.1016/j.jct.2013.01.006).

Details: Liquid, Vibrating tube method

C=C(F)C(F)(F)F [2,3,3,3-tetrafluoro-1-propene]
Details	mass density [kg/m3]
283.5 K, 3000 kPa	1155.63
283.5 K, 5000 kPa	1165.27
283.51 K, 1000 kPa	1145.11
283.51 K, 10000 kPa	1186.43
283.51 K, 15000 kPa	1204.63
283.52 K, 20000 kPa	1220.62
283.52 K, 25000 kPa	1235
283.53 K, 30000 kPa	1248.1
283.53 K, 40000 kPa	1271.31
283.53 K, 50000 kPa	1291.52
283.53 K, 60000 kPa	1309.52
283.53 K, 69990 kPa	1325.92
283.54 K, 79990 kPa	1340.69
283.54 K, 89990 kPa	1354.31
283.54 K, 99990 kPa	1367.01
293.42 K, 100000 kPa	1352.4
293.43 K, 1000 kPa	1111.44
293.43 K, 3000 kPa	1123.79
293.43 K, 5000 kPa	1134.97
293.43 K, 80000 kPa	1324.88
293.43 K, 89990 kPa	1339.25
293.44 K, 10000 kPa	1159.05
293.44 K, 15000 kPa	1179.37
293.44 K, 20000 kPa	1196.95
293.44 K, 70000 kPa	1309.56
293.45 K, 25000 kPa	1212.64
293.45 K, 30000 kPa	1226.8
293.45 K, 40000 kPa	1251.77
293.45 K, 50000 kPa	1273.28
293.45 K, 60000 kPa	1292.28
303.3 K, 1000 kPa	1077.2
303.3 K, 3000 kPa	1092.22
303.3 K, 5000 kPa	1105.38
303.3 K, 10000 kPa	1133.08
303.3 K, 20000 kPa	1175.21
303.3 K, 25000 kPa	1192.3
303.3 K, 30000 kPa	1207.61
303.3 K, 40000 kPa	1234.24
303.3 K, 50000 kPa	1257.07
303.3 K, 60000 kPa	1277.12
303.31 K, 15000 kPa	1155.81
303.31 K, 69990 kPa	1295.36
303.31 K, 80000 kPa	1311.51
303.31 K, 90000 kPa	1326.38
303.31 K, 99990 kPa	1340.07
313.3 K, 3000 kPa	1054.12
313.3 K, 5000 kPa	1070.05
313.3 K, 10000 kPa	1102.25
313.3 K, 15000 kPa	1127.81
313.31 K, 20000 kPa	1149.23
313.31 K, 25000 kPa	1167.84
313.31 K, 30000 kPa	1184.38
313.31 K, 79990 kPa	1294.04
313.31 K, 100000 kPa	1323.74
313.32 K, 40000 kPa	1212.87
313.32 K, 50000 kPa	1237.08
313.32 K, 60000 kPa	1258.24
313.32 K, 70000 kPa	1277.17
313.32 K, 90000 kPa	1309.49
323.16 K, 30000 kPa	1163.21
323.16 K, 80000 kPa	1279.1
323.16 K, 90000 kPa	1295.16
323.16 K, 100000 kPa	1309.92
323.17 K, 3000 kPa	1014.55
323.17 K, 5000 kPa	1034.38
323.17 K, 10000 kPa	1072.33
323.17 K, 15000 kPa	1101.29
323.17 K, 20000 kPa	1125.01
323.17 K, 25000 kPa	1145.33
323.17 K, 40000 kPa	1193.69
323.17 K, 50000 kPa	1219.3
323.17 K, 60000 kPa	1241.51
323.17 K, 69990 kPa	1261.48
333.08 K, 3000 kPa	970.09
333.08 K, 5000 kPa	995.64
333.08 K, 10000 kPa	1041.18
333.08 K, 15000 kPa	1074.07
333.08 K, 20000 kPa	1100.37
333.08 K, 25000 kPa	1122.55
333.08 K, 30000 kPa	1141.81
333.08 K, 40000 kPa	1174.38
333.08 K, 50000 kPa	1201.52
333.08 K, 60000 kPa	1224.88
333.08 K, 70000 kPa	1245.82
333.08 K, 80000 kPa	1264.16
333.08 K, 90000 kPa	1280.84
333.08 K, 99990 kPa	1296.14
343.03 K, 25000 kPa	1099.43
343.04 K, 30000 kPa	1120.26
343.04 K, 40000 kPa	1155.06
343.05 K, 50000 kPa	1183.7
343.05 K, 60000 kPa	1208.19
343.05 K, 70000 kPa	1230.04
343.05 K, 80000 kPa	1249.14
343.05 K, 90000 kPa	1266.4
343.06 K, 15000 kPa	1045.88
343.06 K, 20000 kPa	1075.15
343.06 K, 100000 kPa	1282.22
343.07 K, 3000 kPa	917.18
343.07 K, 5000 kPa	952.33
343.07 K, 10000 kPa	1008.02
353.02 K, 3000 kPa	849.05
353.02 K, 99990 kPa	1268.7
353.03 K, 5000 kPa	902.77
353.03 K, 10000 kPa	973.22
353.03 K, 15000 kPa	1016.73
353.03 K, 20000 kPa	1049.45
353.03 K, 25000 kPa	1075.98
353.03 K, 30000 kPa	1098.53
353.03 K, 40000 kPa	1135.71
353.03 K, 50000 kPa	1166.05
353.03 K, 60000 kPa	1191.81
353.03 K, 69990 kPa	1214.55
353.03 K, 79990 kPa	1234.41
353.03 K, 89990 kPa	1252.33
362.96 K, 5000 kPa	843.74
362.96 K, 10000 kPa	936.17
362.96 K, 15000 kPa	986.89
362.96 K, 20000 kPa	1023.49
362.96 K, 25000 kPa	1052.55
362.96 K, 30000 kPa	1076.97
362.96 K, 40000 kPa	1116.69
362.96 K, 50000 kPa	1148.71
362.96 K, 60000 kPa	1175.67
362.96 K, 70000 kPa	1199.47
362.96 K, 80000 kPa	1220.08
362.96 K, 89990 kPa	1238.55
362.96 K, 100000 kPa	1255.48
